Consider 28 compounds from patent US9284333B2, “Fused pyrroledicarboxamides and their use as pharmaceuticals” (SANOFI, priority 2012, dated 2016).

Sequence of Human TASK-1 channels (O14649 whole entry, the tested form may be a part): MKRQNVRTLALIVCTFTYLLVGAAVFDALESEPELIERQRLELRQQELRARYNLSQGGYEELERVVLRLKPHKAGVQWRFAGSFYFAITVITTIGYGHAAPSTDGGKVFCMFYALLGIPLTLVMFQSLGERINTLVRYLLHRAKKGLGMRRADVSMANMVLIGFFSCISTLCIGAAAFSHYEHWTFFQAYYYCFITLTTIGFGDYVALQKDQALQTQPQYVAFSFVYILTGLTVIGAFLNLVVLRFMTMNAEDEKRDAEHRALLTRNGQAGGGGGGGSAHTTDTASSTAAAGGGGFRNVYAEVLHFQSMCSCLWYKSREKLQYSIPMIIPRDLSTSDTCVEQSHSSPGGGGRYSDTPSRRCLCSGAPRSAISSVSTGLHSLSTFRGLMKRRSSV

One test addresses Human TASK-1 channels (Homo sapiens (Human), UniProt O14649). Nature of the test: Determination of the activity on the TASK-1 channel in Xenopus oocytes (two-microelectrode voltage clamp). The test is classed as cell-based. Particulars: compound concentration 5 μM. An outline of the steps: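 Xenopus oocytes were injected with human TASK-1 cRNA and recorded two days later by two-microelectrode voltage clamp, holding at −90 mV with 500 ms steps to 40 mV. Superfusion used ND96, pH 7.4, at room temperature, with rising compound concentrations; percentage inhibition of control current was fitted to a dose-response curve for IC50.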
For orientation: inhibition means the relative decrease from the control value, in per cent. `CC[C@@H](NC(=O)c1cc(C(=O)N2CCCCC2C)n2c1COCC2)c1ccc(C(F)(F)F)nc1` (stereo partly drawn) [16pc, 6-(2-Methyl-piperidine-1-carbonyl)-3,4-dihydro-1H-pyrrolo[2,1-c][1,4]oxazine-8-carboxylic acid [(R)-1-(6-trifluoromethyl-pyridin-3-yl)-propyl]-amide] showed an inhibition at 5 µM of 53%.
On the same count and under the same terms, with `CC[C@@H](NC(=O)c1cc(C(=O)N2CCC[C@@H]2C)n2c1COCC2)c1ncccc1OC` [16ao, 6-((S)-2-Methyl-pyrrolidine-1-carbonyl)-3,4-dihydro-1H-pyrrolo[2,1-c][1,4]oxazine-8-carboxylic acid [(R)-1-(3-methoxy-pyridin-2-yl)-propyl]-amide] the figure was 83%; with `CC[C@@H](NC(=O)c1cc(C(=O)NCc2ccc(OC)nc2)n2c1COCC2)c1ccccc1` [16jg, 3,4-Dihydro-1H-pyrrolo[2,1-c][1,4]oxazine-6,8-dicarboxylic acid 6-[(6-methoxy-pyridin-3-ylmethyl)-amide] 8-[((R)-1-phenyl-propyl)-amide]], 80%.
On the same count and under the same terms, with `CC[C@@H](NC(=O)c1cc(C(=O)N2CCC[C@@H]2C)c2n1CCOC2)c1ccc(C(F)(F)F)nc1` [16nk, 8-((S)-2-Methyl-pyrrolidine-1-carbonyl)-3,4-dihydro-1H-pyrrolo[2,1-c][1,4]oxazine-6-carboxylic acid [(R)-1-(6-trifluoromethyl-pyridin-3-yl)-propyl]-amide] the figure was 62%.

Staying with this test, now noted: human TASK-1 expressed in Xenopus oocytes, room temperature; read-out: IC50 value for TASK-1 inhibition.
One may read the IC50 as the concentration needed to halve the response being measured. For `CC[C@@H](NC(=O)c1cc(C(=O)N2CCC[C@@H]2C)n2c1COC(C)(C)C2)c1ccc(C#N)cc1` [16nx, 3,3-Dimethyl-6-((S)-2-methyl-pyrrolidine-1-carbonyl)-3,4-dihydro-1H-pyrrolo[2,1-c][1,4]oxazine-8-carboxylic acid [(R)-1-(4-cyano-phenyl)-propyl]-amide], the IC50 came out at 370 nM.
Turning to `CC[C@H](NC(=O)c1cc(C(=O)N[C@H](CC)c2ccccc2)n2c1COCC2)c1ncccn1` [16ke, 3,4-Dihydro-1H-pyrrolo[2,1-c][1,4]oxazine-6,8-dicarboxylic acid 6-[((R)-1-phenyl-propyl)-amide] 8-[((S)-1-pyrimidin-2-yl-propyl)-amide]], the IC50 stood at 220 nM.
Still for that read-out and setting: with `CC[C@@H](NC(=O)c1cc(C(=O)NCCOC)n2c1COCC2)c1ccccc1` [16gh, 3,4-Dihydro-1H-pyrrolo[2,1-c][1,4]oxazine-6,8-dicarboxylic acid 6-[(2-methoxy-ethyl)-amide] 8-[((R)-1-phenyl-propyl)-amide]] the figure was 2200 nM.
As to `CC[C@@H](NC(=O)c1cc(C(=O)NCC2(O)CC2)n2c1COCC2)c1ccccc1` [16hi, 3,4-Dihydro-1H-pyrrolo[2,1-c][1,4]oxazine-6,8-dicarboxylic acid 6-[(1-hydroxy-cyclopropylmethyl)-amide] 8-[((R)-1-phenyl-propyl)-amide]], the IC50 came to 1100 nM.
With `CC[C@@H](NC(=O)c1cc(C(=O)N2CC[C@H](OCC(C)C)C2)n2c1COCC2)c1ccccc1` [16fg, 6-((S)-3-Isobutoxy-pyrrolidine-1-carbonyl)-3,4-dihydro-1H-pyrrolo[2,1-c][1,4]oxazine-8-carboxylic acid ((R)-1-phenyl-propyl)-amide], the IC50 came to 1300 nM.
As for `CC[C@@H](NC(=O)c1cc(C(=O)NCC(C)C)n2c1COCC2)c1ccccc1` [16gf, 3,4-Dihydro-1H-pyrrolo[2,1-c][1,4]oxazine-6,8-dicarboxylic acid 6-isobutylamide 8-[((R)-1-phenyl-propyl)-amide]], the IC50 worked out at 340 nM.
The same measure, in the same setting: for `CC[C@@H](NC(=O)c1cc(C(=O)N[C@H](C)C2CC2)n2c1COCC2)c1ccc(C(F)(F)F)nc1` [16nz, 3,4-Dihydro-1H-pyrrolo[2,1-c][1,4]oxazine-6,8-dicarboxylic acid 6-[((R)-1-cyclopropyl-ethyl)-amide] 8-{[(R)-1-(6-trifluoromethyl-pyridin-3-yl)-propyl]-amide}] the value was 2200 nM.
`CC[C@H](NC(=O)c1cc(C(=O)N[C@H](CC)c2ccccc2)c2n1CCOC2)c1cnccn1` [16hx, 3,4-Dihydro-1H-pyrrolo[2,1-c][1,4]oxazine-6,8-dicarboxylic acid 8-[((R)-1-phenyl-propyl)-amide] 6-[((S)-1-pyrazin-2-yl-propyl)-amide]]: the IC50 is 57 nM.
For `CC[C@@H](NC(=O)c1cc(C(=O)N[C@@H](C)c2ccc(F)cc2)n2c1COCC2)c1ccccc1` [16ht, 3,4-Dihydro-1H-pyrrolo[2,1-c][1,4]oxazine-6,8-dicarboxylic acid 6-{[(S)-1-(4-fluoro-phenyl)-ethyl]-amide} 8-[((R)-1-phenyl-propyl)-amide]], the IC50 came to 70 nM.
`CC[C@@H](NC(=O)c1cc(C(=O)N[C@H](c2ccc(F)cc2)C2CC2)n2c1COCC2)c1ccccc1` [16ik, 3,4-Dihydro-1H-pyrrolo[2,1-c][1,4]oxazine-6,8-dicarboxylic acid 6-{[(S)-cyclopropyl-(4-fluoro-phenyl)-methyl]-amide} 8-[((R)-1-phenyl-propyl)-amide]]: the IC50 was 710 nM.
On the same count and under the same terms, for `CC[C@@H](NC(=O)c1c(C)c(C(=O)N2CCC[C@@H]2C)n2c1COCC2)c1ccc(C(F)(F)F)nc1` [16rx, 7-Methyl-6-((S)-2-methyl-pyrrolidine-1-carbonyl)-3,4-dihydro-1H-pyrrolo[2,1-c][1,4]oxazine-8-carboxylic acid [(R)-1-(6-trifluoromethyl-pyridin-3-yl)-propyl]-amide] the value was 4700 nM; for `CC[C@@H](NC(=O)c1cc(C(=O)N[C@H](CC)c2ccc(OC)nc2)n2c1COCC2)c1ccccc1` [16j, 3,4-Dihydro-1H-pyrrolo[2,1-c][1,4]oxazine-6,8-dicarboxylic acid 6-{[(R)-1-(6-methoxy-pyridin-3-yl)-propyl]-amide} 8-[((R)-1-phenyl-propyl)-amide]], 200 nM.
In the case of `CC[C@H](NC(=O)c1cc(C(=O)N2CCC[C@@H]2C)n2c1COCC2)c1ccc(C(F)(F)F)nc1` [16bj, 6-((S)-2-Methyl-pyrrolidine-1-carbonyl)-3,4-dihydro-1H-pyrrolo[2,1-c][1,4]oxazine-8-carboxylic acid [(S)-1-(6-trifluoromethyl-pyridin-3-yl)-propyl]-amide], the IC50 stood at 4100 nM.
`CC[C@@H](NC(=O)c1cc(C(=O)N2CC[C@@H](OC)C2)n2c1CCCC2)c1ccccc1` [16mg, 3-((R)-3-Methoxy-pyrrolidine-1-carbonyl)-5,6,7,8-tetrahydro-indolizine-1-carboxylic acid ((R)-1-phenyl-propyl)-amide]: the IC50 is 840 nM.
In the case of `CC[C@@H](NC(=O)c1cc(C(=O)N2CCCC2C2CC2)n2c1COCC2)c1ccccc1` (stereo partly drawn) [16gb, 6-(2-Cyclopropyl-pyrrolidine-1-carbonyl)-3,4-dihydro-1H-pyrrolo[2,1-c][1,4]oxazine-8-carboxylic acid ((R)-1-phenyl-propyl)-amide], the IC50 was found to be 450 nM.
Still for that read-out and setting: for `CCOC(=O)C[C@H]1CCCN1C(=O)c1cc(C(=O)N[C@H](CC)c2ccccc2)c2n1CCOC2` [16fi, {(R)-1-[8-((R)-1-Phenyl-propylcarbamoyl)-3,4-dihydro-1H-pyrrolo[2,1-c][1,4]oxazine-6-carbonyl]-pyrrolidin-2-yl}-acetic acid ethyl ester] the value was 130 nM; for `CC[C@@H](NC(=O)c1cc(C(=O)NC2CCCc3nccnc32)n2c1COCC2)c1ccccc1` (stereo partly drawn) [16io, 3,4-Dihydro-1H-pyrrolo[2,1-c][1,4]oxazine-6,8-dicarboxylic acid 8-[((R)-1-phenyl-propyl)-amide] 6-[(5,6,7,8-tetrahydro-quinoxalin-5-yl)-amide]], 940 nM; for `CC[C@@H](NC(=O)c1cc(C(=O)N2CCC[C@@H]2C(O)C2CC2)n2c1COCC2)c1ccccc1` (stereo partly drawn) [16et, 6-[(R)-2-(Cyclopropyl-hydroxy-methyl)-pyrrolidine-1-carbonyl]-3,4-dihydro-1H-pyrrolo[2,1-c][1,4]oxazine-8-carboxylic acid ((R)-1-phenyl-propyl)-amide], 1300 nM.
Still for that read-out and setting: with `CC[C@@H](NC(=O)c1cc(C(=O)N[C@H](CC)c2ccccn2)n2c1COCC2)c1ccccc1` [16gr, 3,4-Dihydro-1H-pyrrolo[2,1-c][1,4]oxazine-6,8-dicarboxylic acid 8-[((R)-1-phenyl-propyl)-amide] 6-[((R)-1-pyridin-2-yl-propyl)-amide]] the figure was 310 nM; with `CC[C@@H](NC(=O)c1cc(C(=O)N2CCC[C@@H]2C)c2n1CCOC2)c1ccccc1` [16ki, 8-((S)-2-Methyl-pyrrolidine-1-carbonyl)-3,4-dihydro-1H-pyrrolo[2,1-c][1,4]oxazine-6-carboxylic acid ((R)-1-phenyl-propyl)-amide], 200 nM; with “3,4-Dihydro-1H-pyrrolo[2,1-c][1,4]oxazine-6,8-dicarboxylic acid 6-{[(R)-1-(4-fluoro-phenyl)-ethyl]-amide} 8-{[(S)-1-(5-methoxy-pyrazin-2-yl)-propyl]-amide} [16dv]”, 190 nM.
Same read-out and setting: for `CC[C@@H](NC(=O)c1cc(C(=O)NC(C)c2ncccn2)n2c1COCC2)c1ccccc1Cl` (stereo partly drawn) [16nr, 3,4-Dihydro-1H-pyrrolo[2,1-c][1,4]oxazine-6,8-dicarboxylic acid 8-{[(R)-1-(2-chloro-phenyl)-propyl]-amide} 6-[(1-pyrimidin-2-yl-ethyl)-amide]] the value was 310 nM; for `CC[C@@H](NC(=O)c1cc(C(=O)N2CC[C@H](OC)C2)n2c1COCC2)c1ccccc1` [16ek, 6-((S)-3-Methoxy-pyrrolidine-1-carbonyl)-3,4-dihydro-1H-pyrrolo[2,1-c][1,4]oxazine-8-carboxylic acid ((R)-1-phenyl-propyl)-amide], 560 nM; for `CC[C@@H](NC(=O)c1cc(C(=O)Nc2cnoc2)c2n1CCOC2)c1ccccc1` [16jv, 3,4-Dihydro-1H-pyrrolo[2,1-c][1,4]oxazine-6,8-dicarboxylic acid 8-isoxazol-4-ylamide 6-[((R)-1-phenyl-propyl)-amide]], 210 nM.
